In PubChem BioAssay AID504935 (The Scripps Research Institute Molecular Screening Center, 2011):

Experiments:
U87 cell line = experiment: cytotoxicity in glioblastoma cells, dose response, cytotoxicity control for Wee1 degradation inhibitor project, cell-based, luminescence, U87, U87 vII (AID 504935); conditions: luminescence viability
U87 vII cell line = experiment: as above; conditions: luminescence viability

O=[N+]([O-])c1cccc2[nH]c(CNc3nc(N4CCOCC4)nc4c3ncn4-c3ccsc3)nc12
IC50 (U87 cell line): 95.1 nM
IC50 (U87 vII cell line): 23.4 nM
